US20040266718A1, “Inhibition of specific histone deacetylase isoforms” (priority 2001, published 2004)
pEC50: −log10 of the molar value.

What was measured:
[1] = biological target: T1, human HDAC-3 (Homo sapiens, UniProt O15379); assay: histone deacetylase enzyme assay, HDAC-3; type: biochemical; settings: recombinant human enzyme, [3H]-acetylated histone substrate, 2 hours; read-out: Enzyme IC50 (μM) HDAC3
T1 construct: made in house; host or cells: insect cells (baculovirus expression system)
T1 sequence (O15379 whole entry): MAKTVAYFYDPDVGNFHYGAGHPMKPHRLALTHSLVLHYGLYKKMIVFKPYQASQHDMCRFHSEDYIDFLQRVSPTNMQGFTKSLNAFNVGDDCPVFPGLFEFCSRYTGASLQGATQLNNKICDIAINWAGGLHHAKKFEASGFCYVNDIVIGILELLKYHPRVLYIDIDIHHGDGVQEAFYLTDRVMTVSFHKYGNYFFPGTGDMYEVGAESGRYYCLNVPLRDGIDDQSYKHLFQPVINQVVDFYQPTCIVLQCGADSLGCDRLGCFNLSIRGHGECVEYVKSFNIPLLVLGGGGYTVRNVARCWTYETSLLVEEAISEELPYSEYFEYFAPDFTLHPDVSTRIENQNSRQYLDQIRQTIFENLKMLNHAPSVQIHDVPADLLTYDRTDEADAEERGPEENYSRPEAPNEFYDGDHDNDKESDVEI
Procedure: (§1) The other HDAC isotypes, HDAC-3 and HDAC-4, were purified directly on an anti-Flag affinity column.
(§2) For the deacetylase assay, 20,000 cpm of an [^3H]-metabolically-labeled acetylated histone was used as a substrate. Histones were incubated with cloned recombinant human HDAC enzymes at 37° C. […] All assay conditions were pre-determined to be certain that each reaction was linear. Reactions were stopped by adding acetic acid (0.04 M, final concentration) and HCl (250 mM, final concentration). The mixture was extracted with ethyl acetate, and the released [^3H]-acetic acid was quantified by liquid scintillation counting. For the inhibition studies, HDAC enzyme was preincubated with test compounds for 30 minutes at 4° C. prior to the start of the enzymatic assay. IC50 values for HDAC enzyme inhibitors were identified with dose response curves for each individual compound and, thereby, obtaining a value for the concentration of inhibitor that produced fifty percent of the maximal inhibition.

[2] = biological target: T2, human HDAC-4 (Homo sapiens, UniProt P56524); assay: histone deacetylase enzyme assay, HDAC-4; type: biochemical; settings: recombinant human enzyme, [3H]-acetylated histone substrate, 2 hours; read-out: Enzyme IC50 (μM) HDAC4
T2 construct: Flag; made in house
T2 sequence (P56524 whole entry): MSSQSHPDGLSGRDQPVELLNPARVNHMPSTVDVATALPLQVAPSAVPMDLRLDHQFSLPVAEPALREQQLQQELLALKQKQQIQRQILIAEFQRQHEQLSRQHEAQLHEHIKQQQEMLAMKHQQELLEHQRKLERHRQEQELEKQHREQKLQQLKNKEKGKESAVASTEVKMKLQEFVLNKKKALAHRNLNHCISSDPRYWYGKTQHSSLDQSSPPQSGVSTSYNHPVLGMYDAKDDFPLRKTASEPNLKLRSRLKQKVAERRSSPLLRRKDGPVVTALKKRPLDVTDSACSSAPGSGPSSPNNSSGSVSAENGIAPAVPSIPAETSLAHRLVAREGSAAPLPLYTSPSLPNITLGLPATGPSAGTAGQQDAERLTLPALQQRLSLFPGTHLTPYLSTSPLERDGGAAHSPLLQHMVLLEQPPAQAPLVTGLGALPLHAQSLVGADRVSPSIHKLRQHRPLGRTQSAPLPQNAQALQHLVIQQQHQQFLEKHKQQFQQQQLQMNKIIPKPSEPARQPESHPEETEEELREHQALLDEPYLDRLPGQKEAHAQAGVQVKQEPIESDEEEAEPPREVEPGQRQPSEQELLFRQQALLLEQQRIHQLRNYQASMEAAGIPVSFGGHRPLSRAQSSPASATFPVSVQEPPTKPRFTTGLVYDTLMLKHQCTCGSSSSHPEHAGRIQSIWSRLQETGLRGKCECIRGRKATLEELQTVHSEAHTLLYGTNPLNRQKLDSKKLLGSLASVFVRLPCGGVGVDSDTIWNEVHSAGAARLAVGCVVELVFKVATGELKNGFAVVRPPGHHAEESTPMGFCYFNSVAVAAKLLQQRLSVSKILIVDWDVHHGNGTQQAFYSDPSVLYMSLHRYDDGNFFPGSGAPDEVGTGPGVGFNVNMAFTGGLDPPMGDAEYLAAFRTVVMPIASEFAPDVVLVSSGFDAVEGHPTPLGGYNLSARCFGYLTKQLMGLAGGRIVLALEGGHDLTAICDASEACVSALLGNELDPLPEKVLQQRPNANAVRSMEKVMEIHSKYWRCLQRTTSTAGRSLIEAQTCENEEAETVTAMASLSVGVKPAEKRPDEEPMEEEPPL
Procedure: Flag-tagged human HDAC-4 enzyme was produced in human embronic kidney 293 cells after transformation by the calcium phosphate precipitation method. Briefly, 293 cells were cultured in Dulbecco's Modified Eagle Medium (DMEM) containing 10% fetal bovine serum and antibiotics. Plasmid DNA encoding Flag-tagged human HDAC-4 was precipitated by ethanol and resuspend in sterile water. DNA-calcium precipitates, formed by mixing DNA, calcium choloride and 2× HEPES-buffered saline solution, were left on 293 cells for 12-16 hours. Cells were return to serum-contained. DMEM medium and harvested at 48 hour post transfection for purification of Flag-tagged HDAC-4 enzyme.
as §1
For the deacetylase assay, 20,000 cpm of an [^3H]-metabolically-labeled acetylated histone was used as a substrate. Histones were incubated with cloned recombinant human HDAC enzymes at 37° C. […] All assay conditions were pre-determined to be certain that each reaction was linear. Reactions were stopped by adding acetic acid (0.04 M, final concentration) and HCl (250 mM, final concentration). The mixture was extracted with ethyl acetate, and the released [^3H]-acetic acid was quantified by liquid scintillation counting. […]

[3] = tested on: Human cancer HCT116 cells; assay: cell cycle arrest by FACS; type: cell-based; settings: HCT116, 16 hours; concentration to induce a (G2+M)/S ratio of 2.5
Procedure: Human cancer HCT116 cells were plated at 2×10^5 per 10-cm dish and were left to attach to the dish overnight in the incubator. Cells were treated with small molecule inhibitors at various concentrations (1 uM and 10 uM, typically, dissolved in DMSO) for 16 hours. Cells were harvested by trypsinization and washed once in 1×PBS (phosphate buffered saline). The cells were resuspended in about 200 ul 1×PBS and were fixed by slowly adding 1 ml 70% ethanol at −20° C. and were left at least overnight at −20° C. Fixed cells were centrifuged at low speed (1,000 rpm) for 5 minutes, and the cell pellets were washed again with 1×PBS. Nucleic acids from fixed cells were incubated in a staining solution (0.1% (w/v) glucose in 1×PBS containing 50 ug/ml propidium iodide) (Sigma-Aldridge, Mississauga, Ontario, CA) and RNase A (final 100 units/ml, (Sigma-Aldridge, Mississauga, Ontario, CA) for at least 30 minutes in the dark at 25° C. DNA content was measured by using a fluorescence-activated cell sorter (FACS) machine. Treatment of cells with all HDAC small molecule inhibitors in Table 2 results in a significant accumulation of cancer cell in G2/M phase of the cell cycle and concomitantly reduce the accumulation of cancer cells in S phase of the cell cycle. The ratio of cells in G2/M phase vs. cells in the S. phase was determined. […]

[4] = biological target: T3, human HDAC-1 (Homo sapiens, UniProt Q13547); assay: histone deacetylase enzyme assay, HDAC-1; type: biochemical; settings: recombinant human enzyme, [3H]-acetylated histone substrate, 10 minutes; read-out: Enzyme IC50 (μM) HDAC1
T3 construct: made in house; host or cells: insect cells (baculovirus expression system)
T3 sequence (Q13547 whole entry): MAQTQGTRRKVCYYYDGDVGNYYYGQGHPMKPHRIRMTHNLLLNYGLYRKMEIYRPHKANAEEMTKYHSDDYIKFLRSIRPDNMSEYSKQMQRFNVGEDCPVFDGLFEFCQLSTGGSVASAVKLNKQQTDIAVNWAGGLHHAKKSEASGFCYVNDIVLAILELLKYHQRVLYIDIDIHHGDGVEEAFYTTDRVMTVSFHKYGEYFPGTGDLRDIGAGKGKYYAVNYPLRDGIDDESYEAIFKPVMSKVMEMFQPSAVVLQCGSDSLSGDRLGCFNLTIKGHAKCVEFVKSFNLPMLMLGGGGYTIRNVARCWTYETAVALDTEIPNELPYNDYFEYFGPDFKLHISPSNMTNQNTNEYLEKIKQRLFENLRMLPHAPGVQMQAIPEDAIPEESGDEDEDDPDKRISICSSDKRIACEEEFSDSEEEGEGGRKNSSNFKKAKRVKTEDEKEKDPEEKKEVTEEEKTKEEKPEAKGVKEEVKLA
Procedure: as §1, §2

[5] = biological target: T4, human HDAC-6 (Homo sapiens, UniProt Q9UBN7); assay: histone deacetylase enzyme assay, HDAC-6; type: biochemical; settings: recombinant human enzyme, [3H]-acetylated histone substrate, 2 hours; read-out: Enzyme IC50 (μM) HDAC6
T4 construct: made in house; host or cells: insect cells (baculovirus expression system)
T4 sequence (Q9UBN7 whole entry): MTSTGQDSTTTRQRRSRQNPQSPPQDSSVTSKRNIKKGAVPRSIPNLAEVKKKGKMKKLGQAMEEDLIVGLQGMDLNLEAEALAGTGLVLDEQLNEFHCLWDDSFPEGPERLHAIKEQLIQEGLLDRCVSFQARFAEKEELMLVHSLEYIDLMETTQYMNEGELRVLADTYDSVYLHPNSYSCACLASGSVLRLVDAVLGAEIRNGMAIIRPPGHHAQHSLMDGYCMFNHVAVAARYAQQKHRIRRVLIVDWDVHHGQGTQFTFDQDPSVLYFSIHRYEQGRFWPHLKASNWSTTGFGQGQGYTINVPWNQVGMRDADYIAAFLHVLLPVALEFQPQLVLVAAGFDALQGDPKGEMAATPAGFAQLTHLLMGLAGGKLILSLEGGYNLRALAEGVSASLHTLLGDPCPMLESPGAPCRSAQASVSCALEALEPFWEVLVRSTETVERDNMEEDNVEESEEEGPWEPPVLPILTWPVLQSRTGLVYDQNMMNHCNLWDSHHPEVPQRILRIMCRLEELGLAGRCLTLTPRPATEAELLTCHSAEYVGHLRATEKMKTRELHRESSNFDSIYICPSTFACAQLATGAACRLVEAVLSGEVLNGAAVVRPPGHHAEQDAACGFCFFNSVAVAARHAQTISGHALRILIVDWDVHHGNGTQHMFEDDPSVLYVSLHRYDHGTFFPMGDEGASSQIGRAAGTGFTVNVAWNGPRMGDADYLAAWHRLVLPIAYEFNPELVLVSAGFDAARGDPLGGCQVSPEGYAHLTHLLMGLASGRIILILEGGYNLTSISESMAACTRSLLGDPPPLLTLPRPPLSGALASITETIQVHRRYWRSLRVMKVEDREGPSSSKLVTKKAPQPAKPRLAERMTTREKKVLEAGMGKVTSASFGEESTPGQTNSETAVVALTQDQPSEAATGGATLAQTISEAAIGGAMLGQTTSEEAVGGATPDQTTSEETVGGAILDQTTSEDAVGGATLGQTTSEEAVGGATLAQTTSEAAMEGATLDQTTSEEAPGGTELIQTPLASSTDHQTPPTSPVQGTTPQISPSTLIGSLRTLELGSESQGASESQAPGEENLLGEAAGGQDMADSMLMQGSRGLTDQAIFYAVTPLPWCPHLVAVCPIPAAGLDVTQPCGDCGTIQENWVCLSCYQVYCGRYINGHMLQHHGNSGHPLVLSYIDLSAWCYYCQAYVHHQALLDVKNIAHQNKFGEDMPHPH
Procedure: as §1, §2

[6] = tested on: acetylated histone H-4 in T24 human bladder cancer cells; assay: inhibition of HDAC activity in whole cells (acetylated histone H-4 Western blot); type: cell-based; settings: 16 hours
Procedure: T24 human bladder cancer cells (ATCC, Manassas, Va.) growing in culture were incubated with test compounds for 16 hours. Histones were extracted from the cells by standard procedures (see e.g. Yoshida et al., supra) after the culture period. Twenty μg total core histone protein was loaded onto SDS/PAGE and transferred to nitrocellulose membranes, which were then reacted with polyclonal antibody specific for acetylated histone H-4 (Upstate Biotech Inc., Lake Placid, […].). Horse Radish Peroxidase conjugated secondary antibody was used at a dilution of 1:5000 to detect primary antibody binding. The secondary antibody binding was visualized by use of the Enhanced chemiluminescence (ECL) detection kit (Amersham-Pharmacia Biotech., Inc., Piscataway, N.J.). After exposure to film, acetylated H-4 signal was quantitated by densitometry.

[7] = tested on: human colon cancer cells (HCT116); assay: tumor growth in mouse model, colon; type: in vivo, BALB/c nude mice; settings: 40 mg/kg body weight/day, po
Procedure: (§3) Female BALB/c nude mice were obtained from Charles River Laboratories (Charles River, N.Y.) and used at age 8-10 weeks. Human prostate tumor cells (DU145, 2×10^6) or human colon cancer cells (HCT116; 2×10^6) or […] A549 2×106 were injected subcutaneously in the animal's flank and allowed to form solid tumors. Tumor fragments were serially passaged a minimum of three times, then approximately 30 mg tumor fragments were implanted subcutaneously through a small surgical incision under general anaesthesia. Small molecule inhibitor administration by intraperotineal or oral administration was initiated when the tumors reached a volume of 100 mm^3. For intraperotineal administration, small molecule inhibitors of HDAC (40-50 mg/kg body weight/day) were dissolved in 100% DMSO and administered daily intraperitoneally by injection. For oral administration, small molecule inhibitors of HDAC (40-50 mg/kg body weight/days) were dissolved in a solution containing 65% polyethylene glycol 400 (PEG 400 (Sigma-Aldridge, Mississauga, Ontario, CA, Catalogue No. P-3265), 5% ethanol, and 30% water. Tumor volumes were monitored twice weekly up to 20 days. Each experimental group contained at least 6-8 animals. Percentage inhibition was calculated using volume of tumor from vehicle-treated mice as controls.

[8] = tested on: human colon cancer HCT116 cells; assay: MTT assay of cell proliferation; type: cell-based; settings: HCT-116, 72 hours
Procedure: Two thousand (2,000) human colon cancer HCT116 cells (ATCC, Manassas, Va. were used in an MTT (3-[4,5-dimethylthiazol-2-yl]-2,5 diphenyl tetrazolium bromide) assay to quantitatively determine cell proliferation and cytotoxicity. Typically, HCT116 cells were plated into each well of the 96-well tissue culture plate and left overnight to attach to the plate. Compounds at various concentrations were added into the culture media (final DMSO concentration 1%) and incubated for 72 hours. MTT solution (obtained from Sigma as powder) was added and incubated with the cells for 4 hours at 37° C. in incubator with 5% CO2. During the incubation, viable cells convert MTT to a water-insoluble formazan dye. Solubilizing buffer (50% N,N-dimethylformamide, 20% SDS, pH 4.7) was added to cells and incubated for overnight at 37C in incubator with 5% CO2. Solubilized dye was quantitated by calorimetric reading at […] using a reference of […]. Optical density values were converted to cell number values by comparison to a standard growth curve for each cell line.

[9] = tested on: A549; assay: tumor growth in mouse model, lung; type: in vivo, BALB/c nude mice; settings: 50 mg/kg body weight/day, ip
Procedure: as §3

[10] = tested on: p21 mRNA expression in A549 cells; assay: RNase protection assay, p21 in A549; type: cell-based, human; settings: TSA vs lipofectin, 250 ng/ml, 16 hours
Procedure: (§6) As a control, A549 cells were treated by lipofectin with or without TSA (250 ng/ml) treatment for 16 hours. These RNase protection assays were done according to the following procedure. Total RNA from cells was prepared using “RNeasy miniprep kit” from QIAGEN following the manufacturer's manual. Labeled probes used in the protection assays were synthesized using “hStress-1 multiple-probe template sets” from Pharmingen (San Diego, Calif., U.S.A.) according to the manufacturer's instructions. Protection procedures were performed using “RPA II™ Ribonuclease Protection Assay Kit” from Ambion, (Austin, Tex.) following the manufacturer's instructions. Quantitation of the bands from autoradiograms was done by using Cyclone™ Phosphor System (Packard Instruments Co. Inc., Meriden, Conn.).

[11] = tested on: A549; assay: apoptosis, Cell Death Detection ELISA, A549; type: cell-based, human; settings: 100 ng/ml
Procedure: (§4) In order to determine the effect of HDAC OSDNs on cell growth and cell death through apoptosis, A549 or T24 cells, MDAmb231 cells, and HMEC cells (ATCC, Manassas, Va.) were treated with HDAC OSDNs as previously described.
(§5) For the apoptosis study, cells were analyzed using the Cell Death Detection ELISA^Plus kit (Roche Diagnostic GmBH, Mannheim, Germany) according to the manufacturer's directions. Typically, 10,000 cells were plated in 96-well tissue culture dishes for 2 hours before harvest and lysis. Each sample was analyzed in duplicate. ELISA reading was done using a MR700 plate reader (DYNEX Technology, Ashford, Middlesex, England) at 410 nm. The reference was set at 490 nm.

[12] = tested on: MDAmb231; assay: apoptosis, Cell Death Detection ELISA, MDAmb231; type: cell-based, human; settings: 100 ng/ml
Procedure: as §4, §5

[13] = tested on: Bax mRNA expression in A549 cells; assay: RNase protection assay, Bax in A549; type: cell-based, human; settings: TSA vs lipofectin, 250 ng/ml, 16 hours
Procedure: as §6

[14] = tested on: HMEC; assay: apoptosis, Cell Death Detection ELISA, HMEC; type: cell-based, human; settings: 100 ng/ml, normal cells
Procedure: as §4, §5

[15] = tested on: GADD45 mRNA expression in A549 cells; assay: RNase protection assay, GADD45 in A549; type: cell-based, human; settings: TSA vs lipofectin, 250 ng/ml, 16 hours
Procedure: as §6

[16] = tested on: T24; assay: apoptosis, Cell Death Detection ELISA, T24; type: cell-based, human; settings: 100 ng/ml
Procedure: as §4, §5

IC50 [1] [µM] | IC50 [2] [µM] | IC50 [4] [µM] | IC50 [5] [µM] | pEC50 [8] | fold induction of transcription, p21, A549 [10] [fold] | fold induction of transcription, Bax, A549 [13] [fold] | fold induction of transcription, GADD45, A549 [15] [fold] | Compound | Cell Cycle Arrest EC [3] [µM] | H4-Ac [6] [µM] | % inhibitor of tumor formation in vivo, colon [7] [%] | % inhibitor of tumor formation in vivo, lung [9] [%] | Apoptosis After 48 Hour Treatment A549 [11] | Apoptosis After 48 Hour Treatment MDAmb231 [12] | Apoptosis After 48 Hour Treatment HMEC [14] | Apoptosis After 48 Hour Treatment T24 [16]
30 | 35 | 3 | > 30 | 5.40 | – | – | – | Nc1ccccc1NC(=O)/C=C/C#Cc1cccc(NS(=O)(=O)c2ccccc2)c1 [Compound 2] | 8 | 5 | 53 | 54 | – | – | – | –
– | – | – | – | – | 2.8 | 0.8 | 0.6 | CC(/C=C/C(=O)NO)=C\[C@@H](C)C(=O)c1ccc(N(C)C)cc1 [TSA, (R)-Trichostatin A, reference compound] | – | – | – | – | ++ (3-5X fold) | ++ (3-5X fold) | + (2-3X fold) | ++ (3-5X fold)
